≈ marks a conversion by molar mass, not a printed value. Where “and” joins values, the source holds several entries; their conditions need not be identical. Equal entries are not always repeated. Where two headings read alike, the source gives them in different places. Bridge positions count the residues as written; N and C are the ends. Square brackets hold non-standard residues; d marks the D form. Peptide text beside a SMILES is read from it. * marks the point of attachment. X1 = CC[C@H](C)CCCCC(=O)*; Dab = NCC[C@H](N)C(=O)O
Assays:
[1] = test system: Enterobacter cloacae; settings: strains with MIC of 16 µg/ml or less / strains tested
Method: (§1) The bacterial species tested are Klebsiella pneumoniae (K. p.), Serratia marcescens (S. m.), Enterobacter cloacae (E. cl.), Escherichia coli (E. c.), and Pseudomonas aeruginosa (P. a.). MICs were determined by the microdilution assay. […] The results are the median values of at least three independent assays.
(§2) Antimicrobial activity was determined using the broth microdilution method based on the guidelines of the Clinical and Laboratory Standards Institute (CLSI) ([39]), using cation-adjusted Mueller-Hinton broth (CAMHB) as the testing medium. Reference Gram-positive and Gram-negative bacteria were tested, including both enteric and Pseudomonas aeruginosa strains. Each MIC was determined in at least three independent assays.

[2] = test system: Escherichia coli
Method: as §1, §2

[3] = test system: Klebsiella pneumoniae; settings: for # strains inhibited at 16 µg/ml peptide K. p.: strains with MIC of 16 µg/ml or less / strains tested
Method: as §1, §2

[4] = test system: Pseudomonas aeruginosa
Method: as §1, §2

[5] = test system: Serratia marcescens; settings: for # strains inhibited at 16 µg/ml peptide S. m.: strains with MIC of 16 µg/ml or less / strains tested
Method: as §1, §2

[6] = test system: 19 Gram-negative strains
Method: (A) Sequences of the cathelicidins, the numbers of bacterial strains killed, and hRBC lysis by the cathelicidins. […] The bacterial species tested are Klebsiella pneumoniae (K. p.), Serratia marcescens (S. m.), Enterobacter cloacae (E. cl.), Escherichia coli (E. c.), and Pseudomonas aeruginosa (P. a.). MICs were determined by the microdilution assay. […] The results are the median values of at least three independent assays.
We tested a panel of cathelicidins for inhibiting growth of 19 Gram-negative strains from the family Enterobacteriaceae and the nonfermentative bacteria. The species tested were Enterobacter cloacae ([2]), Escherichia coli ([5]), Klebsiella pneumoniae ([4]), Pseudomonas aeruginosa ([4]), and Serratia marcescens ([4]). All of the strains selected have been characterized for their antibiotic resistance profiles.
as §2

[7] = test system: E. faecalis
Method: as §2

[8] = test system: S. aureus
Method: as §2

[9] = test system: E. cloacae 4080; test: Bacterial killing, colony formation (CFU); type: cell-based, Enterobacter cloacae; settings: 25 µg/ml kanamycin sulfate, E. cloacae 4080
Method: The number of CFU of E. cloacae 4080 were quantified as a function of time of incubation with a 2 µM concentration of the individual peptides. In the reactions with kanamycin (Kan), 25 µg/ml of kanamycin sulfate was used. […] The initial inoculum was 10^6 CFU in LB.

[10] = test system: K. pneumoniae; test: Bacterial killing, colony formation (CFU); type: cell-based, Klebsiella pneumoniae; settings: 2 µM; Fig. 5C (K. pneumoniae 59) and data not shown

Compound | # strains inhibited at 16 µg/ml peptide E. cl. [1] | # strains inhibited at 16 µg/ml peptide E. c. [2] | # strains inhibited at 16 µg/ml peptide K. p. [3] | # strains inhibited at 16 µg/ml peptide P. a. [4] | concentration usually required to inhibit growth of S. marcescens strains ([5]; S. marcescens strains) [µg/mL] | # strains inhibited at 16 µg/ml peptide S. m. [5] | No. of strains inhibited at 16 µg/ml/total no. of strains [6] | No. of strains inhibited at 16 µg/ml/total no. of strains ([6]; 19 Gram-negative strains, MIC of 16 µg/ml or less) | MIC E. faecalis 29212 [7] [µg/mL] | MIC E. faecalis 51299 [7] [µg/mL] | MIC S. aureus 25923 [8] [µg/mL] | MIC S. aureus 29213 [8] [µg/mL] | reduction of CFU over time [9] | fold reduction in CFU, colistin-resistant K. pneumoniae [10] [fold] | MIC K. pneumoniae 59 ([3]; carbapenem-resistant, colistin-resistant clinical isolate (ST258)) [µM] | MIC (µM) K. pneumoniae 88 ([3]; carbapenem-resistant, colistin-resistant clinical isolate (ST674), microbroth MIC (SD)) [µM]
CC[C@H](C)[C@H](NC(=O)[C@@H](NC(=O)[C@@H]1CCCN1C(=O)[C@H](CO)NC(=O)[C@H](CC(C)C)NC(=O)[C@H](CCCCN)NC(=O)[C@H](CCCCN)NC(=O)[C@H](Cc1ccccc1)NC(=O)[C@H](CC(C)C)NC(=O)[C@H](CCCCN)NC(=O)[C@H](CCCCN)NC(=O)[C@H](Cc1ccccc1)NC(=O)[C@H](CCCCN)NC(=O)[C@H](CCCCN)NC(=O)[C@H](CCCNC(=N)N)NC(=O)[C@H](Cc1ccccc1)NC(=O)[C@H](CCCNC(=N)N)NC(=O)[C@H](CCCCN)NC(=O)[C@H](Cc1ccccc1)NC(=O)[C@H](CCCNC(=N)N)NC(=O)CN)C(C)C)C(=O)N1CCC[C@H]1C(=O)N[C@@H](CC(C)C)C(=O)N[C@@H](CC(C)C)C(=O)N[C@@H](Cc1c[nH]cn1)C(=O)N[C@@H](CC(C)C)C(=O)NCC(=O)O [BMAP-27] (H-GRFKRFRKKFKKLFKKLSPVIPLLHLG-OH; N-terminus and C-terminus assumed) | 2/2 | 6/6 | 4/4 | 4/4 | 8 | 3/3 | 19 and 19/19 | ≥ 16 | >32 | >32 | 16 (≈ 4.87 µM) | 16 (≈ 4.87 µM) | – | – | – | –
CC[C@H](C)[C@H](NC(=O)[C@H](CCCCN)NC(=O)[C@H](CCC(=O)O)NC(=O)[C@H](CCCCN)NC(=O)[C@H](CO)NC(=O)[C@H](CCCCN)NC(=O)[C@H](CCCNC(=N)N)NC(=O)[C@H](Cc1ccccc1)NC(=O)[C@H](Cc1ccccc1)NC(=O)[C@H](CC(=O)O)NC(=O)CNC(=O)[C@H](CC(C)C)NC(=O)[C@@H](N)CC(C)C)C(=O)NCC(=O)N[C@@H](CCCCN)C(=O)N[C@@H](CCC(=O)O)C(=O)N[C@@H](Cc1ccccc1)C(=O)N[C@@H](CCCCN)C(=O)N[C@@H](CCCNC(=N)N)C(=O)N[C@H](C(=O)N[C@H](C(=O)N[C@@H](CCC(N)=O)C(=O)N[C@@H](CCCNC(=N)N)C(=O)N[C@H](C(=O)N[C@@H](CCCCN)C(=O)N[C@@H](CC(=O)O)C(=O)N[C@@H](Cc1ccccc1)C(=O)N[C@@H](CC(C)C)C(=O)N[C@@H](CCCNC(=N)N)C(=O)O)[C@@H](C)CC)C(C)C)[C@@H](C)CC [LL-29] (H-LLGDFFRKSKEKIGKEFKRIVQRIKDFLR-OH; N-terminus and C-terminus assumed) | 1/2 | 2/6 | 0/4 | 0/4 | – | 0/3 | 4/19 | – | – | – | – | – | – | – | – | –
NC[C@H]1O[C@H](O[C@H]2[C@H](O)[C@@H](O[C@H]3O[C@H](CO)[C@@H](O)[C@H](N)[C@H]3O)[C@H](N)C[C@@H]2N)[C@H](O)[C@@H](O)[C@@H]1O [kanamycin] | – | – | – | – | – | – | – | – | – | – | – | – | only after a 2-h incubation | – | – | –
CC[C@H](C)[C@H](NC(=O)[C@H](CCCCN)NC(=O)[C@H](C)NC(=O)[C@H](CCCCN)NC(=O)[C@H](CO)NC(=O)[C@H](CCCCN)NC(=O)[C@H](CCCNC(=N)N)NC(=O)[C@H](Cc1ccccc1)NC(=O)[C@H](Cc1ccccc1)NC(=O)[C@H](C)NC(=O)CNC(=O)[C@H](CC(C)C)NC(=O)[C@@H](N)CC(C)C)C(=O)NCC(=O)N[C@@H](CCCCN)C(=O)N[C@@H](C)C(=O)N[C@@H](Cc1ccccc1)C(=O)N[C@@H](CCCCN)C(=O)N[C@@H](CCCNC(=N)N)C(=O)N[C@H](C(=O)N[C@H](C(=O)N[C@@H](CCC(N)=O)C(=O)N[C@@H](CCCNC(=N)N)C(=O)N[C@H](C(=O)N[C@@H](CCCCN)C(=O)N[C@@H](C)C(=O)N[C@@H](Cc1ccccc1)C(=O)N[C@@H](CC(C)C)C(=O)N[C@@H](CCCNC(=N)N)C(=O)O)[C@@H](C)CC)C(C)C)[C@@H](C)CC [LL-29V2] (H-LLGAFFRKSKAKIGKAFKRIVQRIKAFLR-OH) | 1/2 | 4/6 | 4/4 | 1/4 | – | 1/3 | 4/19 | – | – | – | – | – | – | – | – | –
CC[C@H](C)[C@H](NC(=O)[C@H](CCCCN)NC(=O)[C@H](CCC(=O)O)NC(=O)[C@H](CCCCN)NC(=O)[C@H](CO)NC(=O)[C@H](CCCCN)NC(=O)[C@H](CCCNC(=N)N)NC(=O)[C@H](Cc1ccccc1)NC(=O)[C@H](Cc1ccccc1)NC(=O)[C@H](C)NC(=O)CNC(=O)[C@H](CC(C)C)NC(=O)[C@@H](N)CC(C)C)C(=O)NCC(=O)N[C@@H](CCCCN)C(=O)N[C@@H](C)C(=O)N[C@@H](Cc1ccccc1)C(=O)N[C@@H](CCCCN)C(=O)N[C@@H](CCCNC(=N)N)C(=O)N[C@H](C(=O)N[C@H](C(=O)N[C@@H](CCC(N)=O)C(=O)N[C@@H](CCCNC(=N)N)C(=O)N[C@H](C(=O)N[C@@H](CCCCN)C(=O)N[C@@H](CC(=O)O)C(=O)N[C@@H](Cc1ccccc1)C(=O)N[C@@H](CC(C)C)C(=O)N[C@@H](CCCNC(=N)N)C(=O)O)[C@@H](C)CC)C(C)C)[C@@H](C)CC [LL-29V] (H-LLGAFFRKSKEKIGKAFKRIVQRIKDFLR-OH) | 1/2 | 3/6 | 0/4 | 0/4 | – | 0/3 | 11/19 | – | – | – | – | – | – | – | – | –
CC[C@H](C)[C@H](NC(=O)[C@@H](NC(=O)[C@@H]1CCCN1C(=O)[C@H](CO)NC(=O)[C@H](CC(C)C)NC(=O)[C@H](CCCCN)NC(=O)[C@H](CCCCN)NC(=O)[C@H](C)NC(=O)[C@H](CC(C)C)NC(=O)[C@H](CCCCN)NC(=O)[C@H](CCCCN)NC(=O)[C@H](CC(C)C)NC(=O)[C@H](CCCCN)NC(=O)[C@H](CCCCN)NC(=O)[C@H](CCCNC(=N)N)NC(=O)[C@H](CC(C)C)NC(=O)[C@H](CCCNC(=N)N)NC(=O)[C@H](CCCCN)NC(=O)[C@H](C)NC(=O)[C@H](CCCNC(=N)N)NC(=O)CN)C(C)C)C(=O)N1CCC[C@H]1C(=O)N[C@@H](CC(C)C)C(=O)N[C@@H](CC(C)C)C(=O)N[C@@H](Cc1c[nH]cn1)C(=O)N[C@@H](CC(C)C)C(=O)NCC(=O)O [BMAP-27C] (H-GRAKRLRKKLKKLAKKLSPVIPLLHLG-OH) | 2/2 | 6/6 | 4/4 | 4/4 | – | 2/3 | 17/19 | – | >32 | >32 | >32 | 32 (≈ 10.4 µM) | – | – | – | –
CC[C@H](C)CCCCC(=O)N[C@@H](CCN)C(=O)N[C@H](C(=O)N[C@@H](CCN)C(=O)N[C@H]1CCNC(=O)[C@H]([C@@H](C)O)NC(=O)[C@H](CCN)NC(=O)[C@H](CCN)NC(=O)[C@H](CC(C)C)NC(=O)[C@@H](CC(C)C)NC(=O)[C@H](CCN)NC1=O)[C@@H](C)O [Colistin, colistin] (X1-[Dab]T[Dab][Dab][Dab][dL]L[Dab][Dab]T; lactam 4-C (inferred); N-terminus assumed) | – | – | – | – | – | – | – | – | – | – | – | – | – | 1.4 | 6.4 (≈ 7.48 µg/mL) | 6.4 (≈ 7.48 µg/mL)
CC[C@H](C)[C@H](NC(=O)[C@@H](NC(=O)[C@@H]1CCCN1C(=O)[C@H](CO)NC(=O)[C@H](CC(C)C)NC(=O)[C@H](CCCCN)NC(=O)[C@H](CCCCN)NC(=O)[C@H](Cc1ccccc1)NC(=O)[C@H](CC(C)C)NC(=O)[C@H](CCCCN)NC(=O)[C@H](CCCCN)NC(=O)[C@H](Cc1ccccc1)NC(=O)[C@H](CCCCN)NC(=O)[C@H](CCCCN)NC(=O)[C@H](CCCNC(=N)N)NC(=O)[C@H](CC(C)C)NC(=O)[C@H](CCCNC(=N)N)NC(=O)[C@H](CCCCN)NC(=O)[C@H](Cc1ccccc1)NC(=O)[C@H](CCCNC(=N)N)NC(=O)CN)C(C)C)C(=O)N1CCC[C@H]1C(=O)N[C@@H](CC(C)C)C(=O)N[C@@H](CC(C)C)C(=O)N[C@@H](Cc1c[nH]cn1)C(=O)N[C@@H](CC(C)C)C(=O)NCC(=O)O [BMAP-27A] (H-GRFKRLRKKFKKLFKKLSPVIPLLHLG-OH; N-terminus and C-terminus assumed) | 2/2 | 6/6 | 4/4 | 4/4 | – | 3/3 | 19/19 | – | >32 | >32 | 16 (≈ 4.92 µM) | 16 (≈ 4.92 µM) | – | – | – | –
